From US10188689B2, “Method and composition for treating breast cancer” (STELLENBOSCH UNIVERSITY, priority 2014, dated 2019)

Tested on: Phospho-ser15-p53
Assay: Western blot of tumours from treated mice: phospho-ser15-p53
Format: in vivo, C57BL6 mice
Conditions: tumours of Dox treated mice, seven days
Experimental: Following the weighing and grouping of mice, treatment with D. viscosa extract commenced. Tumour size was measured every two days by taking measurements in two perpendicular dimensions using digital calipers. The D. viscosa extract was administered through raspberry flavoured jelly blocks. Mice were conditioned to the taste of the jelly four days before treatment began. Human dosage (5.24 mg/kg/day) and the Km factor were used for dose translation based on body surface area to calculate animal dosage to be administered (Reagan-Shaw et al., 2007). On the day of treatment, mice were put in separate cages and given a 1 cm×1 cm block of jelly injected with 146 μL extract per jelly block (0.065 mg/g average bodyweight) at dusk every day, for a period of seven days. The day after the last treatment, mice were sacrificed by decapitation, where after tumours were harvested and frozen at −80° C. until needed.
Protein extraction from cells took place after the 24 hour treatment period. The medium was aspirated and the flasks were placed on ice. […] Cell lysates were then centrifuged at room temperature for 10 minutes at 8000 rpm, where after the protein content of each lysate was determined using the Bradford method (Bradford, 1976). […] After extraction protein content was determined with the Bradford method (Bradford, 1976) and stored at −80° C. until analysis, […]

COc1cccc2c1C(=O)c1c(O)c3c(c(O)c1C2=O)C[C@@](O)(C(=O)CO)C[C@@H]3O[C@H]1C[C@H](N)[C@H](O)[C@H](C)O1 [Dox, doxorubicin]
level of p53 in tumours (ratio of phospho-ser15-p53 to total p53): 5.3±1.016 fold increase relative to cont
